{
  "source": "paper PMC11891622",
  "about": "(Angewandte Chemie (International Ed. in English), 2025)",
  "key": {"[1]": {"target": "SARS-CoV-2 Nucleocapsid protein N-terminal globular domain NTD (44–180) (Severe acute respiratory syndrome coronavirus 2, UniProt P0DTC9)", "assay_type": "binding"}, "[2]": {"tested_on": "SARS-CoV-2 Nucleocapsid protein NTR (1–248) (NTD plus two flanking IDRs)", "assay_type": "binding", "settings": "for peaks of poly-L region (216–225): 0.25 equiv. of the chimaera"}},
  "note": "“Also recorded” adds a separate entry of the source. Where two headings read alike, the source gives them in different places.",
  "data": [
    {"substance": "Ac‐Glu‐Gly‐Glu‐Gly‐Glu‐Gly‐Gly‐Glu‐gggg‐Glu‐Gly‐Gly‐Glu‐Gly‐Glu‐(β‐Ala)‐Glu [P-PNA]", "values": [
      {"measurement": "CSP magnitude, chimaera versus peptide P", "setting": "[1]", "value": "CSP for the same residues are more pronounced in the case of the chimaera adduct; also recorded: chemical shift perturbation values are clearly higher for the chimeric molecule"},
      {"measurement": "affinity compared with gRNA fragments / oligonucleotides", "setting": "[1]", "value": "despite larger, is not significantly distant from those reported in the literature for studies conducted with gRNA fragments; also recorded: lower than that of some oligonucleotides of similar length"},
      {"measurement": "affinity compared with the peptide / chimaera counterpart", "setting": "[1]", "value": "superior affinity over the pure peptide precursor; also recorded: higher affinity for an RNA‐binding protein, such as the nucleocapsid protein of SARS‐CoV‐2, compared to a pure designed peptide"},
      {"measurement": "CSP pattern: location of most affected residues", "setting": "[1]; pH 6.5", "value": "predominantly cluster within three main regions, as reported in Figure 2B and 2C, very similar to those identified when interacting with RNA"},
      {"measurement": "exchange regime on the NMR time scale", "setting": "[1]; pH 6.5", "value": "an interaction taking place in a fast exchange regime on the NMR time scale"},
      {"measurement": "peaks of poly-L region (216–225)", "setting": "[2]; 70 µM NTR1-248, pH 6.5, 298 K, listed as P‐PNA", "value": "several cross peaks disappearing at only 0.25 equiv. of ligand added"},
      {"measurement": "peaks of poly-L region (216–225)", "setting": "[2]; 70 µM NTR1-248, pH 6.5, 298 K, listed as chimaera", "value": "disappeared immediately after the addition of only 0.25 equiv. of the chimaera"},
      {"measurement": "major CSPs on the NTD (44–180) region within NTR (1–248)", "setting": "[2]; CSP at 1 equiv. P-PNA, 70 µM NTR1-248, pH 6.5, 298 K", "value": "identified once again in the basic finger of NTD (44–180)"},
      {"measurement": "similarity of affected regions to those with RNA fragments", "setting": "[2]; NTR (1–248), comparison with ref [22], [24]", "value": "the regions that are most affected by the interaction are similar to those identified when studying the interaction of NTR (1–248) with RNA fragments"},
      {"measurement": "most perturbed residues, IDR2 (181–248) SR-rich region (177–203)", "setting": "[2]; pH 6.5", "value": "the SR‐rich region, which shows the highest CSP values; also recorded: The most perturbed residues are found in the SR‐rich region (177–203"},
      {"measurement": "intensity of NTD (44–180) peaks within NTR (1–248)", "setting": "[2]; upon addition of the chimaera, 70 µM NTR1-248, pH 6.5, 298 K", "value": "several peaks of NTD (44–180) decrease in intensity or disappear completely"}
    ]}
  ]
}
